Measured values taken from article PMC5804415, “Comparison of ^68Ga-DOTA-Siglec-9 and ^18F-Fluorodeoxyribose-Siglec-9: Inflammation Imaging and Radiation Dosimetry” (Contrast Media & Molecular Imaging, 2017).
Positions of bridges follow the written chain, without caps; N, C: chain ends. Residues, ends and D or L forms follow the SMILES beside them. *: point of attachment. X1 = O=C(CON=C[C@H](O)[C@H](O)[C@H](O)CF)*; AEEA = NCCOCCOCC(=O)O

Legend:
[1] = Human radiation dosimetry extrapolated from rat PET data (OLINDA/EXM); conditions: mean ± SD
Protocol: Absorbed doses of ^68Ga-DOTA-Siglec-9 and ^18F-FDR-Siglec-9 were calculated with the OLINDA/EXM version 1.0 software (organ level internal dose assessment and exponential modeling; Vanderbilt University, Nashville, TN, USA), which applies the MIRD schema (developed by the Medical Internal Radiation Dose committee of the Society of Nuclear Medicine) for radiation dose calculations in internal exposure. The software includes radionuclide information and selection of human body phantoms. The residence times derived from the rat data were integrated as the area under the time-activity curve. The residence times were converted into corresponding human values by multiplication with a factor to scale the organ and body weights: (WBody,rat/WOrgan,rat)×(WOrgan,human/WBody,human), where WBody,rat and WBody,human are the body weights of rat and human (a 70-kg male), respectively; and WOrgan,rat and WOrgan,human are the organ weights of rat and human (organ weights for a 70 kg male), respectively [14].

[2] = system: rats with skin/muscle inflammation (turpentine oil); type: in vivo, rat
Protocol: Rats were divided into two groups with Group 1 being intravenously (i.v.) given ^68Ga-DOTA-Siglec-9 (16 ± 2.9 MBq, n = 8) and Group 2 ^18F-FDR-Siglec-9 (18 ± 5.1 MBq, n = 8). A 60 min dynamic PET acquisition was performed on a High Resolution Research Tomograph (HRRT; Siemens Medical Solutions, Knoxville, TN, USA). The PET data were reconstructed into 5 × 60 s and 11 × 300 s frames using an ordered-subsets expectation maximization 3D algorithm (OSEM3D). Quantitative PET image analysis was performed by defining regions of interest (ROIs) within the inflamed area (on the left foreleg), control area (on the right foreleg), kidneys, lungs, heart, liver, and urinary bladder using […] 2.8 software (Turku PET Centre). Results were expressed as standardized uptake values (SUV) and time-activity curves. SUV was calculated as a ratio of tissue radioactivity concentration (Bq/mL) and given radioactivity dose (Bq) divided by animal's body weight.

[3] = Ex vivo gamma counting biodistribution in control mice; conditions: mouse, total radioactivity, C57BL/6N control mice (n = 13), 25 min after injection, mean ± SD
Protocol: (§1) Six-month-old atherosclerotic low-density lipoprotein receptor-deficient mice (weight, 27 ± 4.1 g; n = 19) expressing only apolipoprotein B100 (LDLR^−/−ApoB^100/100, strain #003000; Jackson Laboratory, Bar Harbor, ME, USA) were fed for 4 months with a Western-type diet. Two-month-old C57BL/6N mice (weight, 24 ± 2.2 g; n = 13) fed with a regular chow served as controls.
(§2) In PET studies, mice (19 atherosclerotic, 13 controls) were injected with 14 ± 4.4 MBq of ^18F-FDR-Siglec-9. Twenty-five minutes after ^18F-FDR-Siglec-9 injection, blood was drawn by cardiac puncture and the animals were killed. The thoracic aorta was excised and rinsed in saline to remove the blood. In addition, various other tissues were excised and patted dry. Samples of blood and urine were collected, and blood plasma was separated by centrifugation. […] The results were expressed as % ID/g and target-to-background ratio.

[4] = Ex vivo gamma counting biodistribution in atherosclerotic mice; conditions: mouse, total radioactivity, LDLR^−/−ApoB^100/100 mice (n = 19), 25 min after injection, mean ± SD
Protocol: as §1, §2

[5] = Ex vivo gamma counting biodistribution in rats with skin/muscle inflammation; conditions: Sprague-Dawley, rat, iv, total radioactivity; for tissue uptake at 1 h: Ex vivo biodistribution, rats with skin/muscle inflammation, i.v., 60 min after injection, gamma counting, mean ± SD
Text: (§3) Twenty-four hours before the PET studies, Sprague-Dawley rats (weight, 350 ± 22 g; n = 16) were subcutaneously injected with turpentine oil (Sigma-Aldrich) to induce focal acute, sterile inflammation [12]. Before the injection, rats were shaved on the both forelegs. Inflamed area on the left foreleg contained both skin and muscle. The intact, contralateral side (right foreleg) was used as a control.
(§4) After PET imaging, rats were sacrificed and various tissues were excised and weighed, and their radioactivity levels were measured with a gamma counter (1480 Wizard 3′′, PerkinElmer, Turku, Finland). The ex vivo biodistribution results were expressed as a percentage of the injected radioactivity dose per gram of tissue (% ID/g) and target-to-background ratio.

[6] = system: rats with skin/muscle inflammation (turpentine oil); test: as above; conditions: rats with skin/muscle inflammation, 60 min after injection, mean ± SD
Text: as §3, §4

[7] = extrapolated from the rat PET data, OLINDA/EXM, 70 kg male
[8] = source organ, extrapolated from the rat PET data to 70 kg male
[9] = Sprague-Dawley rats, turpentine oil skin/muscle inflammation, i.v., dynamic PET 10–60 min, mean ± SD, SD
[10] = adipose tissue, WAT, 14 MBq, read-out: Ex vivo biodistribution, Adipose tissue, WAT
[11] = aorta, 14 MBq, read-out: Ex vivo biodistribution, Aorta
[12] = blood, 14 MBq, read-out: Ex vivo biodistribution, Blood
[13] = brain, 14 MBq, read-out: Ex vivo biodistribution, Brain
[14] = heart, 14 MBq, read-out: Ex vivo biodistribution, Heart
[15] = kidney, 14 MBq, read-out: Ex vivo biodistribution, Kidney
[16] = thymus, 14 MBq, read-out: Ex vivo biodistribution, Thymus

## CC(C)C[C@@H]1NC(=O)CNC(=O)[C@H](CCCNC(=N)N)NC(=O)[C@H](Cc2c[nH]c3ccccc23)NC(=O)[C@H](CO)NC(=O)[C@H](CC(C)C)NC(=O)[C@H](CO)NC(=O)[C@H](CC(C)C)NC(=O)[C@H](CCCNC(=N)N)NC(=O)[C@H](C)NC(=O)[C@@H](NC(=O)COCCOCCNC(=O)CON=C[C@H](O)[C@H](O)[C@H](O)CF)CSSC[C@@H](C(=O)N2CCC[C@H]2C(=O)N[C@@H](CO)C(=O)N[C@@H](CCCCN)C(=O)O)NC(=O)[C@H](CC(C)C)NC(=O)[C@H]([C@@H](C)O)NC1=O [^18F-FDR-Siglec-9] ({X1-AEEA}-CARLSLSWRGLTLCPSK-OH; disulfide 1-14; N-terminus and C-terminus assumed)
[1]; extrapolated from the rat PET data to 70 kg male
  Normalized number of disintegrations, Total body: 1.8 ± 0.32 h
[1]; [7]
  Human dose equivalent estimate, Adrenals: 0.020 ± 0.0029 mSv/MBq
  Human dose equivalent estimate, Brain: 0.010 ± 0.0018 mSv/MBq
  Human dose equivalent estimate, Breasts: 0.0086 ± 0.0011 mSv/MBq
  Human dose equivalent estimate, Gallbladder wall: 0.017 ± 0.0014 mSv/MBq
  Human dose equivalent estimate, Heart wall: 0.0085 ± 0.00045 mSv/MBq
  Human dose equivalent estimate, Kidneys: 0.29 ± 0.13 mSv/MBq
  Human dose equivalent estimate, Liver: 0.021 ± 0.0061 mSv/MBq
  Human dose equivalent estimate, Lower large intestine wall: 0.014 ± 0.00091 mSv/MBq
  Human dose equivalent estimate, Lungs: 0.0062 ± 0.00016 mSv/MBq
  Human dose equivalent estimate, Muscle: 0.0074 ± 0.00025 mSv/MBq
  Human dose equivalent estimate, Osteogenic cells: 0.016 ± 0.0019 mSv/MBq
  Human dose equivalent estimate, Ovaries: 0.014 ± 0.00083 mSv/MBq
  Human dose equivalent estimate, Pancreas: 0.018 ± 0.0015 mSv/MBq
  Human dose equivalent estimate, Red marrow: 0.012 ± 0.00032 mSv/MBq
  Human dose equivalent estimate, Skin: 0.0080 ± 0.0008 mSv/MBq
  Human dose equivalent estimate, Small intestine: 0.015 ± 0.00049 mSv/MBq
  Human dose equivalent estimate, Spleen: 0.018 ± 0.0022 mSv/MBq
  Human dose equivalent estimate, Stomach wall: 0.014 ± 0.00041 mSv/MBq
  Human dose equivalent estimate, Testes: 0.010 ± 0.0010 mSv/MBq
  Human dose equivalent estimate, Thymus: 0.010 ± 0.0013 mSv/MBq
  Human dose equivalent estimate, Thyroid: 0.0094 ± 0.0014 mSv/MBq
  Human dose equivalent estimate, Total body: 0.012 ± 0.00012 mSv/MBq
  Human dose equivalent estimate, Upper large intestine wall: 0.015 ± 0.00045 mSv/MBq
  Human dose equivalent estimate, Urinary bladder wall: 0.081 ± 0.032 mSv/MBq
  Human dose equivalent estimate, Uterus: 0.017 ± 0.0012 mSv/MBq
[1]; extrapolated from the rat PET data, OLINDA/EXM, 70 kg man
  Human effective dose estimate: 0.022 ± 0.0042 mSv/MBq
[1]; [8]
  Normalized number of disintegrations, Heart wall: 0.0026 ± 0.0010 h
  Normalized number of disintegrations, Kidneys: 0.47 ± 0.21 h
  Normalized number of disintegrations, Liver: 0.11 ± 0.043 h
  Normalized number of disintegrations, Lungs: 0.0029 ± 0.0011 h
  Normalized number of disintegrations, Muscle: 0.081 ± 0.042 h
  Normalized number of disintegrations, Urinary bladder wall: 0.15 ± 0.070 h
[2]; Sprague-Dawley rats, turpentine oil skin/muscle inflammation, i.v., dynamic PET 10–60 min, mean ± SD, n = 5 (68Ga) or 8 (18F), SD
  SUVmean,10–60 min in the inflamed area: 0.77 ± 0.22
[2]; [9]
  SUVmax,10–60 min in the inflamed area: 1.1 ± 0.097
  inflammation-to-blood ratio 10–60 min (PET): 1.7 ± 0.51
[2]; rat, in vivo, iv
  time of peak uptake in the inflamed area after the i.v. bolus injection: about 10 min
[3]; adipose tissue, BAT, 14 MBq, read-out: Ex vivo biodistribution, Adipose tissue, BAT
  tissue uptake at 25 min: 0.45 ± 0.13 %ID/g
[3]; [10]
  tissue uptake at 25 min: 0.63 ± 0.37 %ID/g
[3]; [11]
  tissue uptake at 25 min: 0.52 ± 0.23 %ID/g
[3]; [12]
  tissue uptake at 25 min: 2.1 ± 0.59 %ID/g
[3]; [13]
  tissue uptake at 25 min: 0.11 ± 0.048 %ID/g
[3]; [14]
  tissue uptake at 25 min: 0.34 ± 0.082 %ID/g
[3]; [15]
  tissue uptake at 25 min: 43 ± 25 %ID/g
[3]; liver, read-out: Ex vivo biodistribution, Liver
  tissue uptake at 25 min: 3.5 ± 2.3 %ID/g
[3]; lungs, read-out: Ex vivo biodistribution, Lungs
  tissue uptake at 25 min: 1.5 ± 0.45 %ID/g
[3]; muscle, read-out: Ex vivo biodistribution, Muscle
  tissue uptake at 25 min: 0.43 ± 0.13 %ID/g
[3]; pancreas, read-out: Ex vivo biodistribution, Pancreas
  tissue uptake at 25 min: 0.57 ± 0.18 %ID/g
[3]; plasma, read-out: Ex vivo biodistribution, Plasma
  tissue uptake at 25 min: 3.8 ± 0.62 %ID/g
[3]; small intestine, read-out: Ex vivo biodistribution, Small intestine
  tissue uptake at 25 min: 0.79 ± 0.29 %ID/g
[3]; spleen, read-out: Ex vivo biodistribution, Spleen
  tissue uptake at 25 min: 0.62 ± 0.32 %ID/g
[3]; [16]
  tissue uptake at 25 min: 0.43 ± 0.089 %ID/g
[3]; urine, 14 MBq
  excreta dose per gram or mL at 25 min: 610 ± 340 %ID/g
[4]; LDLR^−/−ApoB^100/100 (strain #003000), liver, read-out: Ex vivo biodistribution, Liver
  tissue uptake at 25 min: 3 ± 0.97 %ID/g
[4]; LDLR^−/−ApoB^100/100 (strain #003000), lungs, read-out: Ex vivo biodistribution, Lungs
  tissue uptake at 25 min: 2.4 ± 1.1 %ID/g
[4]; LDLR^−/−ApoB^100/100 (strain #003000), muscle, read-out: Ex vivo biodistribution, Muscle
  tissue uptake at 25 min: 0.62 ± 0.2 %ID/g
[4]; LDLR^−/−ApoB^100/100 (strain #003000), pancreas, read-out: Ex vivo biodistribution, Pancreas
  tissue uptake at 25 min: 0.82 ± 0.28 %ID/g
[4]; LDLR^−/−ApoB^100/100 (strain #003000), plasma, read-out: Ex vivo biodistribution, Plasma
  tissue uptake at 25 min: 5.7 ± 1.4 %ID/g
[4]; LDLR^−/−ApoB^100/100 (strain #003000), small intestine, read-out: Ex vivo biodistribution, Small intestine
  tissue uptake at 25 min: 1.6 ± 0.49 %ID/g
[4]; LDLR^−/−ApoB^100/100 (strain #003000), spleen, read-out: Ex vivo biodistribution, Spleen
  tissue uptake at 25 min: 1.1 ± 0.28 %ID/g
[4]; [10]
  tissue uptake at 25 min: 0.72 ± 0.66 %ID/g
[4]; [11]
  tissue uptake at 25 min: 0.93 ± 0.38 %ID/g
[4]; [12]
  tissue uptake at 25 min: 3.2 ± 0.82 %ID/g
[4]; [13]
  tissue uptake at 25 min: 0.15 ± 0.06 %ID/g
[4]; [14]
  tissue uptake at 25 min: 0.62 ± 0.28 %ID/g
[4]; [15]
  tissue uptake at 25 min: 44 ± 26 %ID/g
[4]; [16]
  tissue uptake at 25 min: 0.69 ± 0.19 %ID/g
[4]; urine, 14 MBq
  excreta dose per gram or mL at 25 min: 470 ± 370 %ID/g
[5]; adipose tissue, BAT, Adipose tissue, BAT
  tissue uptake at 1 h: 0.049 ± 0.019 %ID/g
[5]; adipose tissue, WAT, Adipose tissue, WAT
  tissue uptake at 1 h: 0.017 ± 0.0041 %ID/g
[5]; blood, Blood
  tissue uptake at 1 h: 0.12 ± 0.023 %ID/g
[5]; bone (femoral), Bone (femoral)
  tissue uptake at 1 h: 0.017 ± 0.01 %ID/g
[5]; bone marrow, Bone marrow
  tissue uptake at 1 h: 0.056 ± 0.011 %ID/g
[5]; brain, Brain
  tissue uptake at 1 h: 0.01 ± 0.003 %ID/g
[5]; control area (intact right foreleg), Control area
  tissue uptake at 1 h: 0.11 ± 0.056 %ID/g
[5]; heart, Heart
  tissue uptake at 1 h: 0.048 ± 0.01 %ID/g
[5]; inflamed area (left foreleg, skin and muscle), Inflamed area
  tissue uptake at 1 h: 0.19 ± 0.053 %ID/g
[5]; kidneys, Kidneys
  tissue uptake at 1 h: 14 ± 9.9 %ID/g
[5]; liver, Liver
  tissue uptake at 1 h: 0.68 ± 0.12 %ID/g
[5]; lungs, Lungs
  tissue uptake at 1 h: 0.11 ± 0.028 %ID/g
[5]; muscle, Muscle
  tissue uptake at 1 h: 0.021 ± 0.0067 %ID/g
[5]; pancreas, Pancreas
  tissue uptake at 1 h: 0.048 ± 0.011 %ID/g
[5]; plasma, Plasma
  tissue uptake at 1 h: 0.23 ± 0.087 %ID/g
[5]; small intestine, Small intestine
  tissue uptake at 1 h: 0.091 ± 0.029 %ID/g
[5]; spleen, Spleen
  tissue uptake at 1 h: 0.06 ± 0.012 %ID/g
[5]; urine, SD
  excreta dose per gram or mL at 1 h: 23 ± 14 %ID/g
[5]; male, testis, Testis
  tissue uptake at 1 h: 0.046 ± 0.022 %ID/g
[6]
  inflamed-to-control area ratio (ex vivo gamma counting): 2.0 ± 0.70
  inflammation-to-blood ratio (ex vivo gamma counting): 1.3 ± 0.16
